# Entries after “also recorded” stand apart in the source; their conditions may differ. Read-outs that look alike come from different tables or passages of the source.
# Key:
# [1] = test system: isolated rat heart
# Text: Applying this approach, a perfused isolated heart may be inserted into an 11.5 tesla NMR magnet for spectroscopic analysis of high-energy phosphagens (ATP, phosphocreatine, and inorganic phosphate) in combination with collection of heart effluent and tissue, and functional assessment of contractility can be determined as measured by dP/dtmax and dP/dtmin, left ventricular developed pressure, heart rate, etc.
# (§1) A heart, in this case isolated from rat and perfused using the Langendorff method, is image guided by 1 H magnetic resonance imaging and magnetic resonance spectroscopy is performed for ^31P found in the high energy phosphogens ATP, phosphocreatine (PCr), and inorganic phosphate (Pi) in an upright 11.7 Tesla NMR at 161.99 MHz (FIGS. 1 and 2).
# (§2) The energetic spectra from the whole heart was averaged every 4 minutes before and after drug exposure. PCr, ATP alpha, beta, and gamma, and Pi peak height and area, and pH calculated from the resonance shift in Pi (pHi=pK+log [(go−gB)/gA−go)] […] Heart contractility (left ventricular pressure) and heart rate is simultaneously acquired on an Emka IOX data acquisition system.
# ^31P spectra is acquired for 20 minutes prior to drug application. The drug of interest is then applied for 1 hour followed by a 20 minute stress test using 0.1 um isoproteranol (a beta agonist) in the presence of the drug which causes increased contractility, relaxation, heart rate, and increased conduction velocity. This step is done to test the energy reserve of the heart after drug application. […] As a positive control, we use FCCP, a mitochondrial uncoupler that inhibits mitochondrial oxidative phosphorylation by disrupting the mitochondrial protein gradient.
# [2] = test system: isolated rat heart; remark: listed apart in the source
# Experimental: In combination with the functional assessment, whole heart energetics can be determined, measured as the changes in peak levels of ATP, phosphocreatine, and inorganic phosphate using NMR spectroscopy.
# as §1, §2
# ^31P spectra is acquired for 20 minutes prior to drug application. The drug of interest is then applied for 1 hour followed by a 20 minute stress test using 0.1 um isoproteranol (a beta agonist) in the presence of the drug which causes increased contractility, relaxation, heart rate, and increased conduction velocity. This step is done to test the energy reserve of the heart after drug application.
# [3] = drug applied for 1 hour, before stress test
# [4] = during 20 minute stress test, 0.1 um isoproteranol in the presence of the drug
Molecule,contractility ([1]; doxorubicin 1 and 10 uM),ATP ([2]; doxorubicin 1 and 10 uM),PCr ([2]; doxorubicin 1 and 10 uM),Pi (inorganic phosphate) ([2]; doxorubicin 1 and 10 uM),"effects on contractility and energetic parameters in the stress test period ([2]; doxorubicin 1 and 10 uM, isoproteranol stress test period)","phosphocreatine ([2]; stress test with isoproteranol, versus control hearts)","contractility (dP/dtmax) [1, 3]","contractility [1, 4]","ATPγ peak [2, 3]","PCr peak [2, 3]","Pi peak [2, 3]","ATPγ peak [2, 4]","PCr peak [2, 4]","Pi peak [2, 4]"
COc1cccc2c1C(=O)c1c(O)c3c(c(O)c1C2=O)C[C@@](O)(C(=O)CO)C[C@@H]3O[C@H]1C[C@H](N)[C@H](O)[C@H](C)O1 [doxorubicin],increases; also recorded: increasing,decreases,decreases,decreases,pronounced,pronounced drop,–,–,–,–,–,–,–,–
carbony cyanide 4-(trifluoromethoxy) phenylhydrazone [FCCP],–,–,–,–,–,–,declines,increased slightly,declines,declines,did not affect,declined further,dropped slightly,no effect

# Reference: patent publication US9393324B2, “Use of 31P NMR spectroscopy of whole heart energetics for detection of drug-induced cardiotoxicity” (Battelle Memorial Institute, priority 2012, dated 2016)
